Earlier results, collected in patent publication US7205335B2, “Preparation of cis-fused 3,3a,8,12b-tetrahydro-2H-dibenzo[3,4:6,7]cyclohepta[1,2-b]furan derivatives” (priority 2001, dated 2007).

Conditions: dose of 300 mg/kg

Compound: CNCC1CC2c3ccccc3Cc3ccccc3C2O1.O=C(O)C(=O)O (racemic) [(±)-3,3a,8,12b-tetrahydro-N-methyl-2H-dibenzo[3,4:6,7]-cyclohepta-[1,2-b]furan-2-methanamine oxalic acid]
- activity as an antidepressant: inactive
